These are literature values, as cited in patent US20130323309A1, “Sustained Release Composition of Memantine” (LUPIN LIMITED, priority 2011, published 2013).

The conditions of the data set: aqueous media and polar solvents; memantine or a pharmaceutically acceptable salt.

With `CC12CC3CC(C)(C1)CC(N)(C3)C2` [Memantine, 1-amino-3,5-dimethyladamantane], the Solubility entry is given as “highly soluble”.
